In patent US20110039787A1, “COMPOSITIONS, KITS AND METHODS FOR TREATING BENIGN PROSTATE HYPERPLASIA” (priority 2009, published 2011):
Square brackets hold non-standard residues; d marks the D form. Peptide text beside a SMILES is read from it. * marks the point of attachment. dPhe(4-NHCONH2) = NC(=O)Nc1ccc(C[C@@H](N)C(=O)O)cc1; Dihydroorotyl(S) = O=C1C[C@@H](C(=O)*)NC(=O)N1; dPhe(4-Cl) = N[C@H](Cc1ccc(Cl)cc1)C(=O)O; Phe(4-NH2) = Nc1ccc(C[C@H](N)C(=O)O)cc1; d2Nal = N[C@H](Cc1ccc2ccccc2c1)C(=O)O; Lys(iPr) = CC(C)NCCCC[C@H](N)C(=O)O; d3Pal = N[C@H](Cc1cccnc1)C(=O)O

Experiments:
men with BPH = assay: IPSS global QoL question, clinical trial in BPH patients; format: in vivo
Protocol: (§1) For each patient, the following parameters were measured or assessed (using the methods discussed below), at time points of screening day 0 (e.g., −7 days, “baseline”), day 14, day 28, and day 42:
(§2) After the initial 6-week treatment period of the exploratory study had been completed, a 12-month follow-up period looking at long-term efficacy commenced. Interim data of the main efficacy variables (IPSS, IPSS Global QoL, prostate volume, urinary flow, and post-void residual volume—measured as set out below) after 6 months' follow-up are also presented herein at Tables 1, 2, 3, and FIG. 1b. FIG. 1b also includes IPSS data at 9 and 12 months.
Included in the IPSS is one item to evaluate QoL (i.e., IPSS-global QoL). The Global QoL Question was developed alongside the IPSS and was officially included as part of the IPSS in 1993 when the WHO formally recommended the IPSS for both symptom and QoL assessment. […] This question assesses the degree to which patients find their symptoms bothersome. Patients are asked about how they would feel if they were to spend the rest of their lives with their prostate symptoms just as they are now. The choices for answering this quality of life question range from “delighted” (rating=0) to “terrible” (rating=6).

prostate volume = assay: Prostate volume by transrectal ultrasound; format: in vivo, men
Protocol: as §1
2) Efficacy Endpoints—the measured Peak Urinary Flow, Post-void Residual Volume, and Prostate Volume.
as §2
The prostate volume was measured by transrectal ultrasound with the patient in a lateral position. The prostatic gland was sonicated from two directions perpendicular to one another resulting in three cursor positions set by the urologist. The volume was calculated automatically. The investigations were performed by urologists by methods known in the art.

[1] = 16+16 mg, Month 6 follow-up, n=6
[2] = 32+32 mg, Month 6 follow-up, n=7
[3] = combined group (all doses), Day 42

CC(=O)N[C@H](Cc1ccc2ccccc2c1)C(=O)N[C@H](Cc1ccc(Cl)cc1)C(=O)N[C@H](Cc1cccnc1)C(=O)N[C@@H](CO)C(=O)N[C@@H](Cc1ccc(NC(=O)[C@@H]2CC(=O)NC(=O)N2)cc1)C(=O)N[C@H](Cc1ccc(NC(N)=O)cc1)C(=O)N[C@@H](CC(C)C)C(=O)N[C@@H](CCCCNC(C)C)C(=O)N1CCC[C@H]1C(=O)N[C@H](C)C(N)=O [Degarelix, D-Alaninamide, N-acetyl-3-(2-naphthalenyl)-D-alanyl-4-chloro-D-phenylalanyl-3-(3-pyridinyl)-D-alanyl-L-seryl-4-[[[(4S)-hexahydro-2,6-dioxo-4-pyrimidinyl]carbonyl]amino]-L-phenylalanyl-4-[(aminocarbonyl)amino]-D-phenylalanyl-L leucyl-N6-(1-methylethyl)-L-lysyl-L-prolyl] (Ac-[d2Nal][dPhe(4-Cl)][d3Pal]S[Phe(4-NH2)](Dihydroorotyl(S))[dPhe(4-NHCONH2)]L[Lys(iPr)]P[dA]-NH2)
Mean IPSS global QoL score, mean (SD) (men with BPH; 32 mg, Day 42, N=12): 1.8 (2.0)
Mean change from baseline in IPSS global QoL score, mean (SD) (men with BPH; 32 mg, Day 42, N=12): −2.1 (3.0)
Change from baseline in IPSS global QoL score, mean (SD) (men with BPH; 32 mg, Month 6 follow-up, n=7): −1.4 (1.1)
Mean IPSS global QoL score, mean (SD) (men with BPH; 32 mg, Month 6 follow-up, n=7): 1.4 (1.5)
Mean IPSS global QoL score, mean (SD) (men with BPH; 64 mg, Day 42, N=13): 2.5 (1.3)
Mean change from baseline in IPSS global QoL score, mean (SD) (men with BPH; 64 mg, Day 42, N=13): −2.2 (1.6)
Change from baseline in IPSS global QoL score, mean (SD) (men with BPH; 64 mg, Month 6 follow-up, n=4): −0.8 (1.7)
Mean IPSS global QoL score, mean (SD) (men with BPH; 64 mg, Month 6 follow-up, n=4): 3.8 (1.3)
Mean IPSS global QoL score, mean (SD) (men with BPH; 16+16 mg, Day 42, N=13): 2.9 (1.4)
Mean change from baseline in IPSS global QoL score, mean (SD) (men with BPH; 16+16 mg, Day 42, N=13): −1.2 (1.4)
Change from baseline in IPSS global QoL score, mean (SD) (men with BPH; [1]): −0.3 (0.5)
Mean IPSS global QoL score, mean (SD) (men with BPH; [1]): 4.2 (1.5)
Mean IPSS global QoL score, mean (SD) (men with BPH; 32+32 mg, Day 42, N=12): 1.9 (1.6)
Mean change from baseline in IPSS global QoL score, mean (SD) (men with BPH; 32+32 mg, Day 42, N=12): −2.4 (1.9)
Change from baseline in IPSS global QoL score, mean (SD) (men with BPH; [2]): −2.7 (2.1)
Mean IPSS global QoL score, mean (SD) (men with BPH; [2]): 1.6 (0.8)
Patients feeling delighted, pleased, or mostly satisfied (IPSS Global QoL scores 0-2) (men with BPH; [3]): 58%
Patients feeling unhappy or terrible (IPSS Global QoL scores 5 and 6) (men with BPH; [3]): 12%
Mean (SD) Prostate Volume (prostate volume; 32 mg, Day 42, N=12): 34.8 (14.2) mL
Prostate Volume, Change from Baseline, mean (SD) (prostate volume; 32 mg, Day 42, N=12): −13.9 (14.7) mL
Prostate Volume, Percentage Change from Baseline, mean (SD) (prostate volume; 32 mg, Day 42, N=12): −25.1 (18.0) %
Mean (SD) Prostate Volume (prostate volume; 32 mg, Month 6 follow-up, n=7): 34.3 (13.9) mL
Prostate Volume, Change from Baseline, mean (SD) (prostate volume; 32 mg, Month 6 follow-up, n=7): −11.6 (5.1) mL
Prostate Volume, Percentage Change from Baseline, mean (SD) (prostate volume; 32 mg, Month 6 follow-up, n=7): −25.6 (8.0) %
Mean (SD) Prostate Volume (prostate volume; 64 mg, Day 42, N=13): 30.6 (10.5) mL
Prostate Volume, Change from Baseline, mean (SD) (prostate volume; 64 mg, Day 42, N=13): −8.2 (10.2) mL
Prostate Volume, Percentage Change from Baseline, mean (SD) (prostate volume; 64 mg, Day 42, N=13): −19.7 (23.2) %
Mean (SD) Prostate Volume (prostate volume; 64 mg, Month 6 follow-up, n=4): 29.0 (3.4) mL
Prostate Volume, Change from Baseline, mean (SD) (prostate volume; 64 mg, Month 6 follow-up, n=4): −9.7 (10.4) mL
Prostate Volume, Percentage Change from Baseline, mean (SD) (prostate volume; 64 mg, Month 6 follow-up, n=4): −21.5 (20.6) %
Mean (SD) Prostate Volume (prostate volume; 16+16 mg, Day 42, N=13): 34.5 (11.0) mL
Prostate Volume, Change from Baseline, mean (SD) (prostate volume; 16+16 mg, Day 42, N=13): −7.5 (7.7) mL
Prostate Volume, Percentage Change from Baseline, mean (SD) (prostate volume; 16+16 mg, Day 42, N=13): −17.0 (16.7) %
Mean (SD) Prostate Volume (prostate volume; [1]): 29.6 (10.4) mL
Prostate Volume, Change from Baseline, mean (SD) (prostate volume; [1]): −11.2 (4.4) mL
Prostate Volume, Percentage Change from Baseline, mean (SD) (prostate volume; [1]): −27.8 (8.7) %
Mean (SD) Prostate Volume (prostate volume; 32+32 mg, Day 42, N=12): 28.7 (8.2) mL
Prostate Volume, Change from Baseline, mean (SD) (prostate volume; 32+32 mg, Day 42, N=12): −9.4 (9.3) mL
Prostate Volume, Percentage Change from Baseline, mean (SD) (prostate volume; 32+32 mg, Day 42, N=12): −23.5 (20.9) %
Mean (SD) Prostate Volume (prostate volume; [2]): 26.5 (6.0) mL
Prostate Volume, Change from Baseline, mean (SD) (prostate volume; [2]): −10.6 (8.8) mL
Prostate Volume, Percentage Change from Baseline, mean (SD) (prostate volume; [2]): −27.1 (17.3) %
